PubChem BioAssay AID2060906 (Molecular Pharmacology Branch, DTP, NCI, 2025)

System: 485176-168-R4-J1-PDC complex spheroid growth
Experiment: Anticancer human tumor 485176-168-R4-J1-PDC patient-derived pancreatic adenocarcinoma cell line growth inhibition [RAS]
Settings: for IC50: curve of first compound; for viability, T/C: stronger effect = lower value
Text: RAS pathway inhibitors in Combinations in Complex Spheroids
A high-throughput screen of multi-cell type tumor spheroids was designed to identify active combinations of RAS pathway inhibitors and targeted small molecules. Complex spheroids include a stromal component modeled by human endothelial cells (HUVEC) and fibroblasts modeled by human mesenchymal stem cells (MSCs). The concentration ranges selected for each drug and investigational agent were based upon clinically achievable concentrations if the clinical Cmax of the agent was known.
Compounds. The drugs and investigational agents: abemaciclib (NSC768073), cobimetinib (NSC768068), divarasib (GDC6063, NSC841802), docetaxel (NSC628503), GDC-1971 (RLY-1971, NSC841576), gemcitabine (NSC613327), inavolisib (NSC800729), ipatasertib (NSC767898), KB-0742 (NSC834161), MRTX-1133 (NSC836407), osimertinib (NSC779217), RMC-4630 (NSC839698), RMC-6236 (NSC851965), RMC-6291 (NSC852671), Ro-3306 (NSC812927), sapanisertib (NSC764658), SN-38 (NSC673596), staurosporine (NSC755774), SY5609 (NSC837396), and tovorafenib (DAY101, NSC766906), were obtained from the National Cancer Institute (NCI) Developmental Therapeutics Program Chemical Repository. The FDA-approved anticancer drug set is available from the NCI Developmental Therapeutics Program. […] The stock solutions were prepared in dimethyl sulfoxide (DMSO, Sigma-Aldrich, St. Louis, MO, cat. D2650) at 800-fold the tested concentration and stored at -70 degrees C prior to their use. All drugs and investigational agents were tested over a range starting from a high concentration at or near the clinical Cmax and decreasing in half-log increments. If the clinical Cmax for an agent had not been determined, the highest concentration tested was 10 microM.
Cell Culture. All cells were maintained in an incubator at 37 degrees C and 5% CO2 with 95% humidity. The PDC lines were cultured according to standard operating procedures established by the NCI PDMR. All PDCs were thawed and cultured in Matrigel-coated flasks prepared with a working solution of 1X Ham's F-12 nutrient mix, without supplementation (Invitrogen, Waltham, MA, cat. 11765054), 100 U/mL penicillin-streptomycin (Invitrogen, cat. 15140122), and 2.5% Matrigel (Corning Inc., Corning, NY, cat. 354248) for the first three passages. The 362531-283-R-J2-PDC and 782815-120-R-J1-PDC lines were cultured in 6C/Colon 1B media, which includes advanced DMEM/F-12 (Thermo Fisher Scientific, cat. 12634028), 10 mM HEPES (Thermo Fisher Scientific, cat. 15630080), 1X GlutaMAX supplement (Thermo Fisher Scientific, cat. 35050061), 0.1 mg/mL primocin (InvivoGen, San Diego, CA, cat. ant-pm-2), 10% defined fetal bovine serum, heat inactivated (HyClone Laboratories Inc., Logan, UT, cat. SH30070.03HI), 50% L-WRN conditioned media (ATCC, cat. CRL-3276), 1.25 mM N-Acetyl-L-cysteine (Sigma-Aldrich, cat. A9165), 10 mM nicotinamide (Sigma-Aldrich, cat. N0636), 1X B-27 supplement (Thermo Fisher Scientific, cat. 17504044), 1X N-2 supplement (Thermo Fisher Scientific, cat. 17502048), 50 ng/mL human EGF (Thermo Fisher Scientific, cat. PHG0311), and 10 microM Y-27632 dihydrochloride (Tocris Bioscience, cat. 1254). The K12877-001-R-J1-PDC line was cultured in 6I media, which includes all 6C/Colon 1B media plus 10 ng/mL human FGF-10 (PeproTech, cat. 100-26), 1 ng/mL human FGF-2 (PeproTech, cat. 100-18B), 1 µM prostaglandin E2 (Tocris Bioscience, cat. 2296), […] hydrocortisone (Sigma-Aldrich, cat. H4001), and […] bovine insulin (Sigma-Aldrich, cat. I6634). The K86415-001-R-J1-PDC line was cultured in 6D media, which includes all 6C/Colon 1B media components minus the L-WRN conditioned media. The 485176-168-R4-J1-PDC was cultured in PANC media, which includes all 6C/Colon 1B media plus 100 ng/mL human FGF-10 (PeproTech, cat. 100-26), 500 nM SB-431542 (Selleckchem, cat. S1067), and 10 nM gastrin (Tocris Bioscience, cat. 3006). […]
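Further: spheroids exposed to compounds for seven days before readout.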
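Wherever viability, T/C is given: luminescence viability expressed relative to DMSO vehicle wells set as 100%.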

CC(C)NCC(C(=O)N1CCN(c2ncnc3c2C(C)CC3O)CC1)c1ccc(Cl)cc1 (configuration not stated) + C#Cc1c(F)ccc2cc(O)cc(-c3ncc4c(N5CC6CCC(C5)N6)nc(OCC56CCCN5CC(F)C6)nc4c3F)c12
IC50 (second compound 0.0316 µM): 3.29 µM | IC50 (second compound 0.1 µM): 0.851 µM | IC50 (second compound 0.316 µM): 2.77 µM | IC50 (second compound 1 µM): 0.884 µM | IC50 (second compound 3.16 µM): 2.12 µM | IC50 (second compound 10 µM): 1.51 µM | viability, T/C (second compound 0.0316 µM, first compound 0.0316 µM): 113% | viability, T/C (second compound 0.0316 µM, first compound 0.1 µM): 99.2% | viability, T/C (second compound 0.0316 µM, first compound 0.316 µM): 84.7% | viability, T/C (second compound 0.0316 µM, first compound 1 µM): 70.1% | viability, T/C (second compound 0.0316 µM, first compound 3.16 µM): 47.3% | viability, T/C (second compound 0.0316 µM, first compound 10 µM): 38.5% | viability, T/C (second compound 0.1 µM, first compound 0.0316 µM): 99% | viability, T/C (second compound 0.1 µM, first compound 0.1 µM): 127% | viability, T/C (second compound 0.1 µM, first compound 0.316 µM): 72.8% | viability, T/C (second compound 0.1 µM, first compound 1 µM): 59.8% | viability, T/C (second compound 0.1 µM, first compound 3.16 µM): 45.6% | viability, T/C (second compound 0.1 µM, first compound 10 µM): 33.4% | viability, T/C (second compound 0.316 µM, first compound 0.0316 µM): 109% | viability, T/C (second compound 0.316 µM, first compound 0.1 µM): 96.5% | viability, T/C (second compound 0.316 µM, first compound 0.316 µM): 72.7% | viability, T/C (second compound 0.316 µM, first compound 1 µM): 65.4% | viability, T/C (second compound 0.316 µM, first compound 3.16 µM): 51.8% | viability, T/C (second compound 0.316 µM, first compound 10 µM): 31.1% | viability, T/C (second compound 1 µM, first compound 0.0316 µM): 92.2% | viability, T/C (second compound 1 µM, first compound 0.1 µM): 105% | viability, T/C (second compound 1 µM, first compound 0.316 µM): 72.4% | viability, T/C (second compound 1 µM, first compound 1 µM): 51.4% | viability, T/C (second compound 1 µM, first compound 3.16 µM): 48.5% | viability, T/C (second compound 1 µM, first compound 10 µM): 35.3% | viability, T/C (second compound 3.16 µM, first compound 0.0316 µM): 99.3% | viability, T/C (second compound 3.16 µM, first compound 0.1 µM): 96.1% | viability, T/C (second compound 3.16 µM, first compound 0.316 µM): 82.9% | viability, T/C (second compound 3.16 µM, first compound 1 µM): 53.8% | viability, T/C (second compound 3.16 µM, first compound 3.16 µM): 52% | viability, T/C (second compound 3.16 µM, first compound 10 µM): 31% | viability, T/C (second compound 10 µM, first compound 0.0316 µM): 104% | viability, T/C (second compound 10 µM, first compound 0.1 µM): 87.9% | viability, T/C (second compound 10 µM, first compound 0.316 µM): 82.6% | viability, T/C (second compound 10 µM, first compound 1 µM): 55.8% | viability, T/C (second compound 10 µM, first compound 3.16 µM): 36.8% | viability, T/C (second compound 10 µM, first compound 10 µM): 33.9%
